According to the supplement of paper PMC7108870:

What was measured:
HEK293sieSTAT3(Y640F) [1] = experiment: drug sensitivity score (DSS), cytotoxicity CellTox Green (DSS (dimensionless)); higher = more cytotoxic; extreme values may be limits of the assay; settings: 72 h; STAT3 variant: Y640F (constitutively active)
Outline: (§1)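 HEK293 cells carrying a STAT3-dependent luciferase reporter and overexpressing wild-type or mutant STAT3 (20 μl at 100,000 cells/ml) were added to compounds acoustically pre-plated at 5 concentrations in 10-fold dilutions in 384-well plates. After 72 hours at 37°C and 5% CO2, CellTox Green fluorescence (485/520 nm) and then CellTiter-Glo luminescence were read on a PHERAstar FS. Values were normalised to negative and positive control wells, and a drug sensitivity score based on dose-response curve area was computed in Breeze. Each value comes from one representative of two experiments.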

HEK293sieSTAT3(wt) [2] = experiment: as above; settings: 72 h; STAT3 variant: wild type
Outline: as §1

HEK293sieSTAT3(Y640F) [3] = experiment: drug sensitivity score (DSS), viability CellTiter-Glo (DSS (dimensionless)); higher = more growth inhibition; extreme values may be limits of the assay; settings: 72 h; STAT3 variant: Y640F (constitutively active)
Outline: as §1

HEK293sieSTAT3(wt) [4] = experiment: as above; settings: 72 h; STAT3 variant: wild type
Outline: as §1

Row | SMILES | drug sensitivity score (HEK293sieSTAT3(Y640F) [1]) | drug sensitivity score (HEK293sieSTAT3(wt) [2]) | drug sensitivity score (HEK293sieSTAT3(Y640F) [3]) | drug sensitivity score (HEK293sieSTAT3(wt) [4])
1 | CN[C@@H](C)C(=O)N[C@H](C(=O)N1CCC[C@H]1c1nc(C(=O)c2ccc(F)cc2)cs1)C1CCCCC1 [LCL161] (top concentration tested 25000 nM) | 26.6 | 45 | 13.7 | 24.6
2 | NC(=O)Nc1sc(-c2ccc(F)cc2)cc1C(N)=O [TPCA-1] (top concentration tested 25000 nM) | 0.96 | 5.56 | 5.84 | 7.61
3 | O=C(O)CSc1cc(NS(=O)(=O)c2ccc(Br)cc2)c2ccccc2c1O [UMI-77] (top concentration tested 100000 nM) | 5.23 | 5.12 | 10 | 13.1
4 | CCCCCOC(=O)Nc1nc(=O)n([C@@H]2O[C@H](C)[C@@H](O)[C@H]2O)cc1F [Capecitabine] (top concentration tested 10000 nM) | 0 | 0 | 0 | 0
5 | C[C@@H](C(=O)O)c1ccc(-c2ccccc2)c(F)c1 [Tarenflurbil] (top concentration tested 10000 nM) | 0 | 0 | 0.09 | 0.56
6 | Nc1nccc(-c2c(-c3ccc(F)cc3)ncn2C2CCCCC2)n1 (top concentration tested 10000 nM) | 0 | 0 | 3.49 | 4.08
7 | C[C@@]1(C(=O)Nc2ccc(F)nc2)CCCN1c1nc(Nc2cc(C3CC3)n[nH]2)c2cccn2n1 (top concentration tested 10000 nM) | 0.48 | 5.21 | 17.4 | 15.8
8 | COc1ccc(C2=N[C@@H](c3ccc(Cl)cc3)[C@@H](c3ccc(Cl)cc3)N2C(=O)N2CCNC(=O)C2)c(OC(C)C)c1 [Nutlin-3] (top concentration tested 10000 nM) | 0.07 | 0.87 | 1.89 | 1.15
9 | Cc1ccc(F)c(NC(=O)Nc2ccc(-c3cccc4[nH]nc(N)c34)cc2)c1 [Linifanib] (top concentration tested 1000 nM) | 0 | 0 | 0 | 0
10 | NC1(c2ccc(-c3nc4ccn5c(=O)[nH]nc5c4cc3-c3ccccc3)cc2)CCC1 [MK-2206] (top concentration tested 1000 nM) | 0 | 0 | 3.71 | 8.2
11 | COC(=O)c1ccc2c(c1)[nH]c1ncnc(NCCCN3CCCCC3)c12 [UM729] (top concentration tested 10000 nM) | 0.81 | 4.84 | 8.45 | 6.2
12 | Cc1c(CN2CCN(C(=O)[C@H](C)O)CC2)sc2c(N3CCOCC3)nc(-c3cnc(N)nc3)nc12 [Apitolisib] (top concentration tested 10000 nM) | 0 | 8.67 | 23.8 | 19.8
13 | CC(C)(C)NC(=O)[C@H]1CC[C@H]2[C@@H]3CC[C@H]4NC(=O)C=C[C@]4(C)[C@H]3CC[C@]12C [Finasteride] (top concentration tested 10000 nM) | 0.18 | 1.18 | 3.82 | 1.63
14 | CCN(c1cc(-c2ccc(CN3CCOCC3)cc2)cc(C(=O)NCc2c(C)cc(C)[nH]c2=O)c1C)C1CCOCC1 [Tazemetostat] (top concentration tested 10000 nM) | 0 | 0 | 0 | 1.85
15 | CCc1cnn2c(NCc3ccc[n+]([O-])c3)cc(N3CCCC[C@H]3CCO)nc12 [Dinaciclib] (top concentration tested 1000 nM) | 7.03 | 24.6 | 27.9 | 28.8
16 | CC(=O)O[C@@]12CO[C@@H]1C[C@H](O)[C@@]1(C)C(=O)[C@H](O)C3=C(C)[C@@H](OC(=O)[C@H](O)[C@@H](NC(=O)OC(C)(C)C)c4ccccc4)C[C@@](O)([C@@H](OC(=O)c4ccccc4)[C@H]21)C3(C)C [Docetaxel] (top concentration tested 1000 nM) | 1.47 | 11.3 | 22.8 | 31
17 | Nc1ccn([C@@H]2O[C@H](CO)[C@@H](O)[C@@H]2O)c(=O)n1 [Cytarabine] (top concentration tested 10000 nM) | 0.18 | 1.75 | 8.82 | 13.3
18 | COc1cccc2c1c(O)c(C(=O)N(C)c1ccc(C(F)(F)F)cc1)c(=O)n2C [Tasquinimod] (top concentration tested 10000 nM) | 0 | 0 | 0 | 5.07
19 | CC[C@@]1(O)C(=O)OCc2c1cc1n(c2=O)Cc2cc3c(CN(C)C)c(O)ccc3nc2-1 [Topotecan] (top concentration tested 10000 nM) | 8.8 | 13 | 28.1 | 27
20 | Cc1ccc(NC(=O)c2ccc(CN3CC[C@H](N(C)C)C3)c(C(F)(F)F)c2)cc1Nc1nccc(-c2cncnc2)n1 [Bafetinib] (top concentration tested 1000 nM) | 0 | 0 | 1.34 | 2.29
21 | COc1cccc2c1C(=O)c1c(O)c3c(c(O)c1C2=O)C[C@@](O)(C(=O)CO)C[C@@H]3O[C@H]1C[C@H](N)[C@H](O)[C@H](C)O1 [Doxorubicin] (top concentration tested 1000 nM) | 0 | 0 | 18.6 | 19.3

Row | SMILES | drug sensitivity score (HEK293sieSTAT3(Y640F) [1]) | drug sensitivity score (HEK293sieSTAT3(wt) [2]) | drug sensitivity score (HEK293sieSTAT3(Y640F) [3]) | drug sensitivity score (HEK293sieSTAT3(wt) [4])
22 | NC(=O)N1CCC(CC(=O)N2CCC([C@H]3c4ncc(Br)cc4CCc4cc(Cl)cc(Br)c43)CC2)CC1 [Lonafarnib] (top concentration tested 10000 nM) | 0.03 | 1.31 | 6.11 | 8.7
23 | Cn1cncc1[C@@](N)(c1ccc(Cl)cc1)c1ccc2c(c1)c(-c1cccc(Cl)c1)cc(=O)n2C [Tipifarnib] (top concentration tested 10000 nM) | 1.51 | 6.86 | 12.3 | 14.8
24 | COc1cc2ncnc(Nc3ccc(F)c(Cl)c3)c2cc1NC(=O)/C=C/CN1CCCCC1 [Dacomitinib] (top concentration tested 1000 nM) | 0 | 0 | 1.76 | 5.47
25 | CCCNC(=O)Nc1ccc(Oc2ncnc3cc(OC)c(OC)cc23)cc1Cl [KRN-633] (top concentration tested 2500 nM) | 0 | 0.01 | 0.57 | 0.2
26 | C[C@@H](Oc1cc(-n2cnc3ccc(CN4CCN(C)CC4)cc32)sc1C(N)=O)c1ccccc1C(F)(F)F (top concentration tested 10000 nM) | 15.3 | 37.4 | 37.9 | 36.5
27 | Cc1ccc(NC(=O)c2ccc(CN3CCN(C)CC3)cc2)cc1Nc1nc(-c2cccnc2)cs1 [Masitinib] (top concentration tested 10000 nM) | 0.7 | 5.99 | 4.59 | 7.57
28 | C=CC(=O)Nc1cc(Nc2nccc(-c3cn(C)c4ccccc34)n2)c(OC)cc1N(C)CCN(C)C [Osimertinib] (top concentration tested 2500 nM) | 0.47 | 6.55 | 6.46 | 8.88
29 | CC(=O)c1c(C)c2cnc(Nc3ccc(N4CCNCC4)cn3)nc2n(C2CCCC2)c1=O [Palbociclib] (top concentration tested 10000 nM) | 1.93 | 7.3 | 5.65 | 6.99
30 | CC(=O)N(O)CCCCCNC(=O)CCC(=O)N(O)CCCCCNC(=O)CCC(=O)N(O)CCCCCN [Deferoxamine] (top concentration tested 10000 nM) | 0.01 | 1.09 | 2.48 | 3.23
31 | C[C@@H](Nc1cc(F)cc(F)c1)c1cc(C(=O)N(C)C)cc2c(=O)cc(N3CCOCC3)oc12 [AZD-8186] (top concentration tested 1000 nM) | 0 | 0 | 0 | 0.9
32 | O=C(CCCCCCC(=O)Nc1ccc([C@H]2O[C@@H](CSc3nc(-c4ccccc4)c(-c4ccccc4)o3)C[C@@H](c3ccc(CO)cc3)O2)cc1)NO [Tubacin] (top concentration tested 10000 nM) | 0.48 | 2.57 | 4.63 | 5.53
33 | Cn1c(=O)n(-c2ccc(C(C)(C)C#N)cc2)c2c3cc(-c4cnc5ccccc5c4)ccc3ncc21 [Dactolisib] (top concentration tested 1000 nM) | 0 | 2.88 | 19.3 | 23
34 | NC(=O)c1cccc2cn(-c3ccc([C@@H]4CCCNC4)cc3)nc12 [Niraparib] (top concentration tested 10000 nM) | 1.69 | 9.84 | 8.57 | 13.3
35 | CO[C@H]1C[C@@H]2CC[C@@H](C)[C@@](O)(O2)C(=O)C(=O)N2CCCC[C@H]2C(=O)O[C@H]([C@H](C)C[C@@H]2CC[C@@H](O)[C@H](OC)C2)CC(=O)[C@H](C)/C=C(\C)[C@@H](O)[C@@H](OC)C(=O)[C@H](C)C[C@H](C)/C=C/C=C/C=C/1C [Sirolimus] (top concentration tested 100 nM) | 0 | 0 | 7 | 9.09
36 | CCCCCCCCc1ccc(CCC(N)(CO)CO)cc1 [Fingolimod] (top concentration tested 10000 nM) | 5.85 | 7.2 | 6.17 | 8.27
37 | COc1cc2nccc(Oc3ccc(NC(=O)Nc4cc(C)on4)c(Cl)c3)c2cc1OC [Tivozanib] (top concentration tested 10000 nM) | 0 | 1.14 | 4.07 | 4.13
38 | COC(=O)C[C@](O)(CCCC(C)(C)O)C(=O)O[C@@H]1C(OC)=C[C@]23CCCN2CCc2cc4c(cc2[C@H]13)OCO4 [Omacetaxine] (top concentration tested 10000 nM) | 1.64 | 3.27 | 28.9 | 32.9
39 | O=C(Nc1ccc2[nH]nc(-c3ccncc3)c2c1)[C@@H]1CCN(CC(=O)N2CCN(c3ccc(-c4ncccn4)cc3)CC2)C1 (top concentration tested 10000 nM) | 0.69 | 0 | 3.37 | 1.44
40 | CCC(C)(C)C(=O)O[C@H]1C[C@@H](C)C=C2C=C[C@H](C)[C@H](CC[C@@H]3C[C@@H](O)CC(=O)O3)[C@H]21 [Simvastatin] (top concentration tested 10000 nM) | – | – | 0.89 | 3.28
41 | O=C(c1ccc(/C=C/c2n[nH]c3ccccc23)cc1)N1CCNCC1 [KW-2449] (top concentration tested 2500 nM) | 0 | 0.89 | 1.97 | 0.3
42 | Cc1ccc(C(=O)Nc2ccc(CN3CCN(C)CC3)c(C(F)(F)F)c2)cc1C#Cc1cnc2cccnn12 [Ponatinib] (top concentration tested 1000 nM) | – | – | 6.74 | 9.83
